Patent publication US9085576B2 (AMGEN INC., priority 2013, dated 2015)

Legend:
BACE = BACE (Homo sapiens (Human), UniProt P56817); experiment: In vitro BACE cell-based assay (Aβ40 in conditioned medium, sandwich ELISA)
Cathepsin D (Cat D) = Cathepsin D (Cat D) (Homo sapiens (Human), UniProt P07339); experiment: In vitro enzymatic Cathepsin D (Cat D) FRET assay; type: biochemical; details: read-out: CatD IC50
[1] = target: Beta Secretase enzyme (BACE) (Homo sapiens (Human), UniProt P56817); experiment: In vitro enzymatic BACE FRET assay; type: biochemical; details: read-out: BACE1 Enzyme assay IC50
Sequence of Beta Secretase enzyme (BACE) (P56817 46-501): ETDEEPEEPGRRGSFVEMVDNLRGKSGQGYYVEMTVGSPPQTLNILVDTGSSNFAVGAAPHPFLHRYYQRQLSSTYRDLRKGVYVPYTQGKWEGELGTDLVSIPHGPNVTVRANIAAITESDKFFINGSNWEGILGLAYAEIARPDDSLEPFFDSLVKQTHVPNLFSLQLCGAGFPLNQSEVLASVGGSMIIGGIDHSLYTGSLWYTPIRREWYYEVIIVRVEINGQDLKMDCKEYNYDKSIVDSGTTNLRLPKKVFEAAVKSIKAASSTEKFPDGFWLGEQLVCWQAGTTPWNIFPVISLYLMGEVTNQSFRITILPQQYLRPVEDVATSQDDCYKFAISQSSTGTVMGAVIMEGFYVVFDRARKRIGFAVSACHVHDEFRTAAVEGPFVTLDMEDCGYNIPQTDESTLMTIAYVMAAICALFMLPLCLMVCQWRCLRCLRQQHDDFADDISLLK

Sequence of Cathepsin D (Cat D) (P07339 65-412, species assumed): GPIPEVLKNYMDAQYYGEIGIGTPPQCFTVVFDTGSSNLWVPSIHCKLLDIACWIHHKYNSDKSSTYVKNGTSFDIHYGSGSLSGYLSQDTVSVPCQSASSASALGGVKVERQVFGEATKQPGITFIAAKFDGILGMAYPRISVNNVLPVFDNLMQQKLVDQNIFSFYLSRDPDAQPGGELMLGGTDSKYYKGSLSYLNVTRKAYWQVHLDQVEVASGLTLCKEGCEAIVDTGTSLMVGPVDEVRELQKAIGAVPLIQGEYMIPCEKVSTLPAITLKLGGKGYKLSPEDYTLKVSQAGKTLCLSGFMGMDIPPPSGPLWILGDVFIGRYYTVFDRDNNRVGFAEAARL
Sequence of BACE (P56817 46-501, species assumed): as the sequence (P56817 46-501) above

Row | SMILES | IC50 (BACE) | IC50 (Cathepsin D (Cat D)) | IC50 [1]
1 | CC(C)n1cc(Cl)c(C(=O)Nc2ccc(F)c([C@@]3(C(F)F)N=C(N)O[C@@H]4C[C@@H]43)c2)n1 [Example 161, N-(3-((1R,5S,6R)-3-amino-5-(difluoromethyl)-2-oxa-4-azabicyclo[4.1.0]hept-3-en-5-yl)-4-fluorophenyl)-4-chloro-1-isopropyl-1H-pyrazole-3-carboxamide] | > 15.6 µM | 295 µM | > 40 µM
2 | Cc1cc(C#N)cnc1C(=O)Nc1cc(F)c(F)c([C@@]2(CF)N=C(N)O[C@@H]3C[C@@H]32)c1 [Example 49] | 0.0082 µM | 202 µM | 0.0308 µM
3 | NC1=N[C@@](c2cc(NC(=O)c3ncc(Cl)cc3CF)ccc2F)(C(F)F)[C@H]2C[C@H]2O1 [Example 308, N-(3-((1R,5S,6R)-3-amino-5-(difluoromethyl)-2-oxa-4-azabicyclo[4.1.0]hept-3-en-5-yl)-4-fluorophenyl)-5-chloro-3-(fluoromethyl) picolinamide] | 0.0321 µM | 186 µM | 0.0177 µM
4 | Cc1cc(C(F)(F)F)cnc1C(=O)Nc1ccc(Cl)c([C@@]2(CF)N=C(N)O[C@@H]3C[C@@H]32)c1 [Example 125, N-(3-((1R,5S,6R)-3-amino-5-(fluoromethyl)-2-oxa-4-azabicyclo[4.1.0]hept-3-en-5-yl)-4-chlorophenyl)-3-methyl-5-(trifluoromethyl) picolinamide] | 0.0086 µM | > 400 µM | 0.0806 µM
5 | Cc1csc(C(=O)Nc2ccc(F)c([C@@]3(C(F)F)N=C(N)O[C@@H]4C[C@@H]43)c2)c1 [Example 176, N-(3-((1R,5S,6R)-3-amino-5-(difluoromethyl)-2-oxa-4-azabicyclo[4.1.0]hept-3-en-5-yl)-4-fluorophenyl)-4-methylthiophene-2-carboxamide] | 0.156 µM | 835 µM | 0.191 µM
6 | CC#CCOc1cnc(C(=O)Nc2ccc(Cl)c([C@@]3(CF)N=C(N)O[C@@H]4C[C@@H]43)c2)cn1 [Example 285, N-(3-((1R,5S,6R)-3-amino-5-(fluoromethyl)-2-oxa-4-azabicyclo[4.1.0]hept-3-en-5-yl)-4-chlorophenyl)-5-(but-2-yn-1-yloxy)pyrazine-2-carboxamide] | 0.0006 µM | 1830 µM | 0.0022 µM
7 | NC1=N[C@@](c2cc(Nc3ncc(F)c4cc(C#CC5CC5)cnc34)ccc2F)(C(F)F)[C@H]2C[C@H]2O1 [Example 408, (1R,5S,6R)-5-(5-((3-(cyclopropylethynyl)-5-fluoro-1,7-naphthyridin-8-yl)amino)-2-fluorophenyl)-5-(difluoromethyl)-2-oxa-4-azabicyclo[4.1.0]hept-3-en-3-amine] | 1.58 µM | 347 µM | 0.0463 µM
8 | COc1cc(F)cnc1C(=O)Nc1ccc(F)c([C@@]2(C(F)F)N=C(N)O[C@@H]3C[C@@H]32)c1 [Example 307, N-(3-((1R,5S,6R)-3-amino-5-(difluoromethyl)-2-oxa-4-azabicyclo[4.1.0]hept-3-en-5-yl)-4-fluorophenyl)-5-fluoro-3-methoxypicolinamide] | 0.139 µM | > 400 µM | 0.413 µM
9 | COc1cc(Cl)cnc1C(=O)Nc1cc(C)c(F)c([C@@]2(C(F)F)N=C(N)O[C@@H]3C[C@@H]32)c1 [Example 134, N-(3-((1R,5S,6R)-3-amino-5-(difluoromethyl)-2-oxa-4-azabicyclo[4.1.0]hept-3-en-5-yl)-4-fluoro-5-methylphenyl)-5-chloro-3-methoxypicolinamide] | 0.0604 µM | 1110 µM | 0.131 µM
10 | COc1cnc(C(=O)Nc2ccc(F)c([C@@]3(C(F)F)N=C(N)O[C@@H]4C[C@@H]43)c2)c(C)c1 [Example 131, N-(3-((1R,5S,6R)-3-amino-5-(difluoromethyl)-2-oxa-4-azabicyclo[4.1.0]hept-3-en-5-yl)-4-fluorophenyl)-5-methoxy-3-methylpicolinamide] | 0.0809 µM | 342 µM | 0.185 µM

More lines, now with the values ahead:

Row | IC50 (BACE) | IC50 (Cathepsin D (Cat D)) | IC50 [1] | SMILES
11 | 1.87 µM | 148 µM | 1.15 µM | NC1=N[C@@](c2cc(NC(=O)c3ccc(-c4ccccc4)cn3)ccc2F)(C(F)F)[C@H]2C[C@H]2O1 [Example 291, N-(3-((1R,5S,6R)-3-amino-5-(difluoromethyl)-2-oxa-4-azabicyclo[4.1.0]hept-3-en-5-yl)-4-fluorophenyl)-5-phenylpicolinamide]
12 | 0.0387 µM | 421 µM | 0.0743 µM | Cc1cc(C#N)cnc1C(=O)Nc1cc(F)c(C)c([C@@]2(C(F)F)N=C(N)O[C@@H]3C[C@@H]32)c1 (racemic) [Example 309, N-(3-(((1R,S),(5S,R),(6R.S))-3-amino-5-(difluoromethyl)-2-oxa-4-azabicyclo[4.1.0]hept-3-en-5-yl)-5-fluoro-4-methylphenyl)-5-cyano-3-methylpicolinamide]
13 | 0.0593 µM | 192 µM | 0.0391 µM | N#Cc1cnc2c(Nc3ccc(F)c([C@@]4(C(F)F)N=C(N)O[C@@H]5C[C@@H]54)c3)ncc(F)c2c1 [Example 352, 8-((3-((1R,5S,6R)-3-amino-5-(difluoromethyl)-2-oxa-4-azabicyclo[4.1.0]hept-3-en-5-yl)-4-fluorophenyl)amino)-5-fluoro-1,7-naphthyridine-3-carbonitrile]
14 | 2.89 µM | 1470 µM | 4.78 µM | C#CCOc1cnc(C(=O)Nc2ccc(Cl)c([C@]3(CF)N=C(N)O[C@H]4C[C@H]43)c2)cn1 [Example 280, N-(3-((1S,5R,6S)-3-amino-5-(fluoromethyl)-2-oxa-4-azabicyclo[4.1.0]hept-3-en-5-yl)-4-chlorophenyl)-5-(prop-2-yn-1-yloxy)pyrazine-2-carboxamide]
15 | 0.0129 µM | 464 µM | 0.0903 µM | Cc1ccc(NC(=O)c2ccc(Cl)cn2)cc1[C@@]1(C(F)F)N=C(N)O[C@@H]2C[C@@H]21 [Example 295, N-(3-((1R,5S,6R)-3-amino-5-(difluoromethyl)-2-oxa-4-azabicyclo[4.1.0]hept-3-en-5-yl)-4-methylphenyl)-5-chloropicolinamide]
16 | 0.0149 µM | 752 µM | 0.122 µM | COc1cnc(C(=O)Nc2ccc(Cl)c([C@@]3(CF)N=C(N)O[C@@H]4C[C@@H]43)c2)c(Cl)c1 [Example 284, N-(3-((1R,5S,6R)-3-amino-5-(fluoromethyl)-2-oxa-4-azabicyclo[4.1.0]hept-3-en-5-yl)-4-chlorophenyl)-3-chloro-5-methoxypicolinamide]
17 | 0.134 µM | > 400 µM | 2.09 µM | Cn1cc2ccnc(Nc3ccc(F)c([C@@]4(C(F)F)N=C(N)O[C@@H]5C[C@@H]54)c3)c2n1 [Example 358]
18 | 0.0624 µM | 106 µM | 0.133 µM | NC1=N[C@](CF)(c2cc(Nc3ncnc4cc(Cl)cnc34)ccc2F)[C@H]2C[C@H]2O1 [Example 347, (1R,5S,6R)-5-(5-((7-chloropyrido[3,2-d]pyrimidin-4-yl)amino)-2-fluorophenyl)-5-(fluoromethyl)-2-oxa-4-azabicyclo[4.1.0]hept-3-en-3-amine]
19 | 0.601 µM | 1660 µM | 0.271 µM | Cc1cccnc1C(=O)Nc1ccc(F)c([C@@]2(C(F)F)N=C(N)O[C@@H]3C[C@@H]32)c1 [Example 293]
